Patent publication US20040082614A1, “Methods of treating infection using anitbiotics and glycogen phosphorylase inhibitors” (Pfizer Inc., priority 2002, published 2004)
Like-named read-outs stand apart in the source and are kept apart here. Values belong to the molecule of their own block, whether it stands above or below them.

Legend:
Assay type in all cases: cell-based
[1] = system: Chlamydia pneumonia; test: Minimum bacteriocidal concentration (MBC) determination in Hep2 cells infected with Chlamydia pneumonia, drugs removed at 72 h, further 72 h; conditions: for reduction of the MBC for azithromycin by the glycogen phosphorylase inhibitor: summary statement, combination with azithromycin
Protocol: (§1) Hep2 cells maintained in Isocove's Modified Dulbecco's Medium (IMDM) were infected with Chlamydia pneumonia (0.5 MOI for two hours after one hour centrifugation). Cells were then treated with Compound A (0, 5, 10, 20, 30 or 40 μg/ml) or Compound B (0, 5, 10, 20, 30 or 40 μg/ml) alone and/or in combination with azithromycin (Pfizer, Inc., New York, N.Y.) 0, 0.005, 0.0158, 0.050, 0.158, or 0.5 μg/ml). For minimum inhibitory concentration (MIC) determination, cells were terminated for analysis at 72 h after the addition of drugs. For minimum bacteriocidal concentration (MBC) determination, drugs were removed at 72 h post-treatment, the media was replaced, and cells were maintained for an additional 72 h before termination. At termination, cells were analyzed for quantitation of inclusion bodies using fluorescent microscopy, and general cell viability by microscopic visualization.

[2] = system: Chlamydia pneumonia; test: Minimum inhibitory concentration (MIC) determination in Hep2 cells infected with Chlamydia pneumonia, inclusion bodies by fluorescent microscopy; conditions: for antibacterial effects of the combination with azithromycin: MIC and MBC
Protocol: as §1

[3] = system: Hep2 cells; test: General cell viability / host cell appearance by microscopic visualization
Protocol: as §1

[4] = Chlamydia, 72 h, drug alone, drugs removed at 72 h, additional 72 h, read-out: MBC
[5] = combined with 5 μg/ml Compound A
[6] = combined with 30 μg/ml Compound B
[7] = Chlamydia, 72 h, drug alone, 72 h after addition of drugs, read-out: MIC

MIC [2, 7]: 0.158 µg/mL
MIC ([2]; Chlamydia, combined with 5 μg/ml Compound A, read-out: azithromycin concentration required for MIC): 0.05 µg/mL
MIC ([2]; Chlamydia, combined with 10 μg/ml Compound A, read-out: azithromycin concentration required for MIC): 0.0158 µg/mL
MIC ([2]; Chlamydia, combined with 10 μg/ml Compound B, read-out: azithromycin concentration required for MIC): 0.05 µg/mL
MIC ([2]; Chlamydia, combined with 30 μg/ml Compound B, read-out: azithromycin concentration required for MIC): 0.0158 µg/mL
decrease in azithromycin concentration required for MIC [2, 5]: 3 fold
decrease in azithromycin concentration required for MIC ([2]; combined with 10 μg/ml Compound A): 10 fold
decrease in azithromycin concentration required for MIC ([2]; combined with 10 μg/ml Compound B): 3 fold
decrease in azithromycin concentration required for MIC [2, 6]: 10 fold
SMILES: CC[C@H]1OC(=O)[C@H](C)[C@@H](O[C@H]2C[C@@](C)(OC)[C@@H](O)[C@H](C)O2)[C@H](C)[C@@H](O[C@@H]2O[C@H](C)C[C@H](N(C)C)[C@H]2O)[C@](C)(O)C[C@@H](C)CN(C)[C@H](C)[C@@H](O)[C@]1(C)O [Azithromycin, 9a-aza-9a-methyl-9-deoxo-9a-homoerythromycin A]
MBC [1, 4]: 0.5 µg/mL
MBC ([1]; Chlamydia, combined with 5 μg/ml Compound A, read-out: azithromycin concentration required for MBC): 0.158 µg/mL
MBC ([1]; Chlamydia, combined with 20 μg/ml Compound A, read-out: azithromycin concentration required for MBC): 0.05 µg/mL
MBC ([1]; Chlamydia, combined with 30 μg/ml Compound B, read-out: azithromycin concentration required for MBC): 0.158 µg/mL
decrease in azithromycin concentration required for MBC [1, 5]: 3 fold
decrease in azithromycin concentration required for MBC ([1]; combined with 20 μg/ml Compound A): 10 fold
decrease in azithromycin concentration required for MBC [1, 6]: 3 fold

MIC [2, 7]: 20 µg/mL
SMILES: O=C(N[C@@H](Cc1ccc(F)cc1)C(=O)N1CCC(O)CC1)c1cc2cc(Cl)ccc2[nH]1 [Compound A, 5-chloro-1H-indole-2-carboxylic acid [(1S)-(4-fluoro-benzyl)-2-(4-hydroxypiperidin-1-yl)-2-oxo-ethyl]-amide]
concentrations associated with changes in host cell appearance ([3]; Hep2 host cells): ≥ 30000 ng/mL
MBC [1, 4]: 30 µg/mL
reduction of the MBC for azithromycin by the glycogen phosphorylase inhibitor [1]: 3-10 fold
antibacterial effects of the combination with azithromycin [2]: synergy of antibacterial effects

MIC ([2]; drug alone, 72 h after addition of drugs): > 40 µg/mL
SMILES: O=C(N[C@@H](Cc1ccccc1)[C@@H](O)C(=O)N1C[C@@H](O)[C@@H](O)C1)c1cc2cc(Cl)ccc2[nH]1 [Compound B]
changes in host cell appearance [3]: not associated with any changes in host cell appearance
MBC ([1]; drug alone, drugs removed at 72 h, additional 72 h): > 40 µg/mL
reduction of the MBC for azithromycin by the glycogen phosphorylase inhibitor [1]: 3 fold
antibacterial effects of the combination with azithromycin [2]: synergy of antibacterial effects
